# Test results published in patent US9056087B2, “Methods of healing or preventing inflammation, damage and other changes that occur prior to, during or immediately after a myocardial event with thymosin beta 4, analogues, isoforms and other derivatives” (REGENERX BIOPHARMACEUTICALS, INC., priority 2001, dated 2015).
# Test system: cardiac endothelial cells
# Test: collagen gel assay: transformation of cardiac endothelial cells to mesenchymal cells
# Type: cell-based
# Details: at physiological concentrations (Tβ4)
# Procedure: Synthetic Tβ4 and an antibody to Tβ4 was provided by RegeneRx Biopharmaceuticals, Inc. (3 Bethesda Metro Center, Suite 700, Bethesda, Md. 20814) and were tested in a collagen gel assay to determine their effects on the Transformation of cardiac endothelial cells to mesenchymal cells. It is Well established that development of heart valves and other cardiac tissue are formed by epithelial-mesenchymal transformation and that defects in this process can cause serious cardiovascular malformation and injury during development and throughout life. […] Transformation of atrioventricular endocardium into invasive mesenchyme is critical in the formation and maintenance of normal cardiac tissue and in the formation of heart valves.
substance,measurement,value
"Thymosin β4 (SDKPDMAEIEKFDKSKLKKTETQEKNPLPSKETIEQEKQAGES; not fully specified; Thymosin beta-4; UniProt P62328 2-44, looked up) [Tβ4, synthetic Tβ4 provided by RegeneRx]",effect on the transformation of endocardial cells to mesenchymal cells in the collagen gel assay,markedly enhances the transformation
